Patent publication US9012502B2, “Cancer heat therapy-enhancing agent” (SBI Pharmaceuticals Co., Ltd., priority 2010, dated 2015)

How the values were obtained:
[1] = test system: HEK293 cells; assay: Assay for intracellular reactive oxygen species (DCF-DA, flow cytometry); assay type: cell-based, human; settings: for fluorescence peak value derived from DCF-DA: 42° C. (5-ALA-free cells 244); for level of intracellular reactive oxygen species, increase compared with 5-ALA-free cells: 42° C. for 24 hours, in the dark; for level of intracellular reactive oxygen species (in words): 0.5-2.0 mM 5-ALA
Description: To investigate what kind of effect 5-aminolevulinic acids according to the present invention could exert on a level of intracellular reactive oxygen species during thermotherapy, human embryonic kidney-derived HEK293 cells and a DCF-DA fluorescent reagent (2′,7′-dichlorodihydrofluorescein diacetate; H2DCFDA) were used to perform an assay for measuring a level of intracellular reactive oxygen species. Note that this assay uses characteristics as follows. Cell-permeable H2DCFDA remains a non-fluorescent substance until it is oxidized in the cytoplasm of a viable cell. Once it enters the viable cell, its diacetate group is cleaved by an intracellular esterase. Then, the resulting molecule is further oxidized by reactive oxygen species to emit fluorescence. The higher the measured fluorescence level, the higher the level of intracellular reactive oxygen species. This assay was performed using the following procedure.
First, HEK293 cells were cultured at 37° C. for 24 hours in 10% fetal bovine serum (FBS)-containing Dulbecco's Modified Eagle (DME) medium. The cells were split into 8 groups. Next, the medium was replaced by an FBS-free DME medium. Then, 5-aminolevulinic acid (5-ALA) was added to each group at a final concentration of 0.5 mM, 1.0 mM, or 2.0 mM, and cultured at 37° C. for 2 hours. After that, 10% FBS was added, and the resulting HEK293 cells were incubated at 37 or 42° C. for 24 hours. In addition, 5-ALA-free HEK293 cells were likewise incubated at 37 or 42° C. for 24 hours. All the above culture processes were conducted in the dark, so that an ultraviolet light, visible light, infrared light, or radiation, etc., was never used for irradiation.
Furthermore, to each group of the HEK293 cells was added a DCF-DA fluorescent reagent (manufactured by Sigma-Aldrich Corporation) at a final concentration of 20 μM. The resulting mixture was incubated for 30 minutes. Then, fluorescence (FL1: green fluorescence) derived from the DCF-DA was measured for each group by flow cytometry (FACSCalibur, manufactured by Becton, Dickinson and Company). […] More specifically, when 0.5 mM of 5-ALA was added at an incubation temperature of 42° C., the level of intracellular reactive oxygen species was increased by 1.23 times (300/244) compared with that of the 5-ALA-free cells. When 1.0 mM of 5-ALA was added, the level of intracellular reactive oxygen species was increased by 1.34 times (326/244). When 2.0 mM of 5-ALA was added, the level of intracellular reactive oxygen species was increased by 1.42 times (346/244).

[2] = test system: transformed human embryonic kidney cell line HEK293; assay: Measuring intracellular PpIX concentration by HPLC; assay type: cell-based; settings: for intracellular PpIX concentration, increase compared with 5-ALA-free cells: 42° C. for 24 hours
Procedure: (§1) These two types of cells were cultured at 37 or 42° C. for 24 hours in a DME medium containing 10% FBS and 5-ALA at a concentration of 0, 0.5, 1, or 2 mM. Next, the cells were harvested using trypsin treatment. Then, the number of cells contained in a measurement sample was adjusted using a hemocytometer at 1×10^4. After that, the cells were lysed with NaOH, and treated with a DMF solution (i.e., a mixture of N,N-dimethylformamide:2-propanol=100:1). The resulting cell lysate was centrifuged at 13,000 rpm and 4° C. for 10 minutes to collect a supernatant. Subsequently, the supernatant was reacted at room temperature for 24 hours. Finally, the resulting supernatant was used as a measurement sample, and was subjected to a PpIX concentration measurement using HPLC.

[3] = test system: human gastric cancer-derived cell line KatoIII; assay: Hyperthermia sensitivity test using trypan blue reagent; assay type: cell-based
Description: (§2) A colon cancer-derived cell line Caco-2, a human hepatoma-derived cell line HepG2, a human gastric cancer-derived cell line KatoIII, and a human cervical cancer-derived cell line HeLa were used as cancer cell lines. A human embryonic kidney cell line HEK293 was used as cells transformed so as to overgrow like cancer cells. A human normal diploid fibroblast line WI-38, a murine fibroblast-like cell line NIH3T3, and a human embryonic lung-derived normal fibroblast MRCS were used as normal cells. Each of these cells was cultured at 37 or 42° C. for 24 hours in a DME medium containing 10% FBS and 5-ALA at a concentration of 0, 0.5, 1, or 2 mM, and treated with trypsin for cell harvest. Then, equal volumes of the harvested cell-containing solution and a trypan blue reagent were mixed, and the number of the cells was counted with a hemocytometer to calculate the fraction of dead cells (cells stained with trypan blue) (%; percent cell death).

[4] = test system: human normal diploid fibroblast line WI-38; assay: as above; assay type: cell-based; settings: normal cells WI-38, 42° C.
Description: as §2

[5] = test system: human cervical cancer-derived cell line HeLa; assay: as above; assay type: cell-based
Description: as §2

[6] = test system: human embryonic kidney cell line HEK293; assay: as above; assay type: cell-based; settings: for fraction of dead cells (%), increase compared with 5-ALA-free cells: 42° C.
Description: as §2

[7] = test system: murine fibroblast-like cell line NIH3T3; assay: as above; assay type: cell-based; settings: normal cells NIH3T3, 42° C.
Description: as §2

[8] = test system: colon cancer-derived cell line Caco-2; assay: as above; assay type: cell-based; settings: for fraction of dead cells (%), increase compared with 5-ALA-free cells: 42° C.
Description: as §2

[9] = test system: human hepatoma-derived cell line HepG2; assay: as above; assay type: cell-based; settings: for fraction of dead cells (%), increase compared with 5-ALA-free cells: 42° C.
Description: as §2

[10] = test system: human embryonic lung-derived normal fibroblast MRCS; assay: as above; assay type: cell-based; settings: 42° C.
Description: as §2

[11] = test system: human fibrosarcoma cell line HT-1080; assay: Hyperthermia sensitivity test using flow cytometry; assay type: cell-based; settings: for fraction of dead cells (%), increase compared with 5-ALA-free cells: 42° C.
Procedure: (§3) To investigate what kind of effect the addition of 5-ALA could exert on hyperthermia sensitivity of cancer cells, a hyperthermia sensitivity test was performed using a flow cytometry technique as follows.
(§4) First, a human fibrosarcoma cell line HT-1080 and a colon cancer-derived cell line Caco-2 were prepared as cancer cell lines, and a human fibroblast line WI-38 and a murine fibroblast line NIH3T3 were prepared as normal cell lines. Also, prepared was a human embryonic kidney cell line HEK293 transformed so as to overgrow like cancer cells. These cells were cultured at 37° C. for 24 hours in 10% FBS-containing DME medium, and split into 8 groups. Next, the medium was replaced by an FBS-free DME medium. Then, 5-aminolevulinic acid (5-ALA) was added to each group at a final concentration of 0.5 mM, 1.0 mM, or 2.0 mM, and cultured at 37° C. for 2 hours. After that, 10% FBS was added, and the resulting cell groups were incubated […] for 24 hours. In addition, 5-ALA-free cell groups were likewise incubated at 37 or 42° C. for 24 hours. All the above culture processes were conducted in the dark, so that an ultraviolet light, visible light, infrared light, or radiation, etc., was never used for irradiation.
(§5) With regard to the fraction of dead cells, a total number of cells having apoptosis and necrosis was counted, and a ratio of the total number to the number of all cells was calculated. […] Of note is little enhancement of the cell death-inducing effect in normal cells.

[12] = test system: colon cancer-derived cell line Caco-2; assay: Hyperthermia sensitivity test using flow cytometry; assay type: cell-based; settings: for fraction of dead cells (%), increase compared with 5-ALA-free cells: 42° C.
Procedure: as §3, §4, §5

[13] = test system: human embryonic kidney cell line HEK293 transformed so as to overgrow like cancer cells; assay: Hyperthermia sensitivity test using flow cytometry; assay type: cell-based; settings: for fraction of dead cells (%), increase compared with 5-ALA-free cells: 42° C.
Procedure: as §3, §4, §5

[14] = test system: human fibroblast line WI-38; assay: Hyperthermia sensitivity test using flow cytometry; assay type: cell-based; settings: normal cells WI-38, 42° C.
Procedure: as §3, §4, §5

[15] = test system: murine fibroblast line NIH3T3; assay: Hyperthermia sensitivity test using flow cytometry; assay type: cell-based; settings: normal cells NIH3T3, 42° C.
Procedure: as §3, §4, §5

[16] = test system: normal cell line WI-38; assay: Measuring intracellular PpIX concentration by HPLC; assay type: cell-based, human; settings: WI-38, regardless of the 5-ALA concentration added, 37 or 42° C.
Procedure: as §1

[17] = 37° C., each concentration of 5-ALA

## NCC(=O)CCC(=O)O [5-ALA, 5-aminolevulinic acid]
[1]; 0.5 mM 5-ALA
  fluorescence peak value derived from DCF-DA: 300
  level of intracellular reactive oxygen species, increase compared with 5-ALA-free cells: 1.23 times
[1]; 1.0 mM 5-ALA
  fluorescence peak value derived from DCF-DA: 326
  level of intracellular reactive oxygen species, increase compared with 5-ALA-free cells: 1.34 times
[1]; 2.0 mM 5-ALA
  fluorescence peak value derived from DCF-DA: 346
  level of intracellular reactive oxygen species, increase compared with 5-ALA-free cells: 1.42 times
[1]; incubation temperature 37° C.
  level of intracellular reactive oxygen species (in words): somewhat increased
[1]; incubation temperature 42° C.
  level of intracellular reactive oxygen species (in words): markedly increased
[2]; HEK293, 0.5 mM 5-ALA
  intracellular PpIX concentration, increase compared with 5-ALA-free cells: about 2.75 times
[2]; HEK293, 1.0 mM 5-ALA
  intracellular PpIX concentration, increase compared with 5-ALA-free cells: about 6.3 times
[2]; HEK293, 2.0 mM 5-ALA
  intracellular PpIX concentration, increase compared with 5-ALA-free cells: about 5.9 times
[2]; culture conditions at 42° C.
  PpIX concentration in the HEK293 cell line (in words): increased depending on the 5-ALA concentration
[3]; 0.5 mM 5-ALA, 42° C.
  fraction of dead cells (%), increase compared with 5-ALA-free cells: about 1.8 times
[3]; 1.0 mM 5-ALA, 42° C.
  fraction of dead cells (%), increase compared with 5-ALA-free cells: about 1.8 times
[3]; 2.0 mM 5-ALA, 42° C.
  fraction of dead cells (%), increase compared with 5-ALA-free cells: about 1.8 times
[3]; [17]
  fraction of dead cells (in words): did not increase
[3]; 42° C.
  fraction of dead cells (in words): markedly increased depending on the 5-ALA concentration
[4]
  increase in the fraction of dead cells depending on the 5-ALA concentration (in words): no increase
[5]; 0.5 mM 5-ALA, 42° C.
  fraction of dead cells (%), increase compared with 5-ALA-free cells: about 1.4 times
[5]; 1.0 mM 5-ALA, 42° C.
  fraction of dead cells (%), increase compared with 5-ALA-free cells: about 1.5 times
[5]; 2.0 mM 5-ALA, 42° C.
  fraction of dead cells (%), increase compared with 5-ALA-free cells: about 1.6 times
[5]; [17]
  fraction of dead cells (in words): did not increase
[5]; 42° C.
  fraction of dead cells (in words): markedly increased depending on the 5-ALA concentration
[6]; HEK293, 0.5 mM 5-ALA
  fraction of dead cells (%), increase compared with 5-ALA-free cells: about 1.6 times
[6]; HEK293, 1.0 mM 5-ALA
  fraction of dead cells (%), increase compared with 5-ALA-free cells: about 2.0 times
[6]; HEK293, 2.0 mM 5-ALA
  fraction of dead cells (%), increase compared with 5-ALA-free cells: about 3.5 times
[6]; HEK293, 37° C., each concentration of 5-ALA
  fraction of dead cells (in words): did not increase
[6]; HEK293, 42° C.
  fraction of dead cells (in words): markedly increased depending on the 5-ALA concentration
[7]
  increase in the fraction of dead cells depending on the 5-ALA concentration (in words): no increase
[8]; Caco-2, 0.5 mM 5-ALA
  fraction of dead cells (%), increase compared with 5-ALA-free cells: about 1.2 times
[8]; Caco-2, 1.0 mM 5-ALA
  fraction of dead cells (%), increase compared with 5-ALA-free cells: about 1.7 times
[8]; Caco-2, 2.0 mM 5-ALA
  fraction of dead cells (%), increase compared with 5-ALA-free cells: about 1.6 times
[8]; Caco-2, 37° C., each concentration of 5-ALA
  fraction of dead cells (in words): did not increase
[8]; Caco-2, 42° C.
  fraction of dead cells (in words): markedly increased depending on the 5-ALA concentration
[9]; HepG2, 0.5 mM 5-ALA
  fraction of dead cells (%), increase compared with 5-ALA-free cells: about 1.1 times
[9]; HepG2, 1.0 mM 5-ALA
  fraction of dead cells (%), increase compared with 5-ALA-free cells: about 1.35 times
[9]; HepG2, 2.0 mM 5-ALA
  fraction of dead cells (%), increase compared with 5-ALA-free cells: about 1.5 times
[9]; HepG2, 37° C., each concentration of 5-ALA
  fraction of dead cells (in words): did not increase
[9]; HepG2, 42° C.
  fraction of dead cells (in words): markedly increased depending on the 5-ALA concentration
[10]
  increase in the fraction of dead cells depending on the 5-ALA concentration (in words): no increase
[11]; HT-1080, 0.5 mM 5-ALA
  fraction of dead cells (%), increase compared with 5-ALA-free cells: about 1.7 times
[11]; HT-1080, 1.0 mM 5-ALA
  fraction of dead cells (%), increase compared with 5-ALA-free cells: about 1.5 times
[11]; HT-1080, 2.0 mM 5-ALA
  fraction of dead cells (%), increase compared with 5-ALA-free cells: about 2.3 times
[11]; HT-1080, 37° C.
  fraction of dead cells (in words): somewhat increased
[11]; HT-1080, 42° C.
  fraction of dead cells (in words): increase markedly
[12]; Caco-2, 0.5 mM 5-ALA
  fraction of dead cells (%), increase compared with 5-ALA-free cells: about 2.1 times
[12]; Caco-2, 1.0 mM 5-ALA
  fraction of dead cells (%), increase compared with 5-ALA-free cells: about 2.0 times
[12]; Caco-2, 2.0 mM 5-ALA
  fraction of dead cells (%), increase compared with 5-ALA-free cells: about 1.9 times
[12]; Caco-2, 37° C.
  fraction of dead cells (in words): somewhat increased
[12]; Caco-2, 42° C.
  fraction of dead cells (in words): increase markedly
[13]; HEK293, 0.5 mM 5-ALA
  fraction of dead cells (%), increase compared with 5-ALA-free cells: about 3.2 times
[13]; HEK293, 1.0 mM 5-ALA
  fraction of dead cells (%), increase compared with 5-ALA-free cells: about 4.8 times
[13]; HEK293, 2.0 mM 5-ALA
  fraction of dead cells (%), increase compared with 5-ALA-free cells: about 6.0 times
[13]; HEK293, 37° C.
  fraction of dead cells (in words): somewhat increased
[13]; HEK293, 42° C.
  fraction of dead cells (in words): increase markedly
[14]
  5-ALA concentration-dependent cell death (in words): not enhanced
[15]
  5-ALA concentration-dependent cell death (in words): not enhanced
[16]
  intracellular PpIX concentration (in words): detection limit or less
